# In publication PMC9721052, “AHL-Priming Protein 1 mediates N-3-oxo-tetradecanoyl-homoserine lactone priming in Arabidopsis” (BMC Biology, 2022):
# Target: T1, ALI1 (AHL-Priming Protein 1; AtGlcAK2, formerly AtGALK2) (Arabidopsis thaliana, UniProt Q9LY82)
# T1 construct: gene GLCAK2; full ORF amplified from Col-0 cDNA, pDEST17, N-terminal 6xHis kept, expressed in E. coli BL21, Ni-NTA purified; GST-ALI1 also made for the biosensor assay
# T1 sequence (Q9LY82 1-366): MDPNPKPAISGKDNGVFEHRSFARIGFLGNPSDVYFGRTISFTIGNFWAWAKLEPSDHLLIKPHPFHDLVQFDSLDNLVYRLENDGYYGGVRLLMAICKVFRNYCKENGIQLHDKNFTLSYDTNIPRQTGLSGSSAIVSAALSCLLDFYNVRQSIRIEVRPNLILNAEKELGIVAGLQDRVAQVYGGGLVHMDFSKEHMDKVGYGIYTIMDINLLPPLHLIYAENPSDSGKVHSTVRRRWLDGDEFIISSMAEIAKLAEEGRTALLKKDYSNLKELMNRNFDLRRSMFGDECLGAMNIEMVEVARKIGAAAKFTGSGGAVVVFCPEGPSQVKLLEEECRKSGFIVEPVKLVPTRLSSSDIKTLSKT
# Assay: sequestration of free ligand read by biosensor E. coli LuxCDABE luminescence
# Format: binding
# Conditions: 6 nmol protein, 0-18 nmol ligand, overnight; indirect assay, MST and nanoDSF by the same authors did not confirm
structure (smiles),measurement,value
CCCCCCCCCCCC(=O)CC(=O)N[C@H]1CCOC1=O [oxo-C14-HSL],sequestration of free ligand read by biosensor E. coli LuxCDABE luminescence,equivalently able to sequestrate oxo-C14-HSL molecule from the solution
